The results in this text go back to US20240398823A1, “DUAL INHIBITOR OF HISTONE DEACETYLASE 6 AND HEAT SHOCK PROTEIN 90” (TAIPEI MEDICAL UNIVERSITY, priority 2021, published 2024).

The subject of series [1] is CD8 cells and granzyme B in mouse tumor area. Briefly: IHC of CD8 cell infiltration and granzyme B in CT26 tumor area. It counts as in vivo. Conditions: CT26 tumors, day 25, IHC, 10, 25, 50 mg/kg. The protocol: The tumors were removed from mice on day 25 and embedded in paraffin and sectioned for immunohistochemical staining. […] Bar, SD.
The effects of the HSP90/HDAC6 dual inhibitors as described in Synthesis Examples (such as Compounds 63, 64, and 66 to 76) on several factors were evaluated. IHC-Paraffin: Tumor tissues were excised from the mice, fixed in 4% formaldehyde solution in PBS, and embedded in paraffin. Sections of 4-5 μm were cut and placed in an oven at 60° C. for overnight. After deparaffinizing and rehydrating the section, the antigen retrieval was performed with citrate buffer (10 mM citrate acid, pH 6) or Tris buffer (10 mM Tris, 1 mM EDTA, pH9) by autoclave for 30 min at 121 C. The sections were blocked with 10% goat serum and then incubated with primary antibodies against the following antigens: IDO (Santa Cruz Biotechnology Dallas, TX, USA), CD8 (Novus, Littleton, CO, USA) and granzyme B (Abcam, Cambridge, UK) at 4 C for overnight. […] Images of the tumor tissues sections were captured by Mirax Scan (CARL ZEISS, Germany) or TissueFAXS (Vienna, Austria) and analyzed by HistoQuest software (Vienna, Austria).
It is known that TME blocks the infiltration of functional immune cells into the tumor area. The effects of Compound 75 on CD8 cell infiltration in the tumor area were evaluated. […] Therefore, the ability of CD8+ T cells to secrete granzyme B was evaluated.

In series [2] the target is T1, HSP90α (Homo sapiens, UniProt P07900).
T1 construct: Reaction Biology Corporation (ran the assay as a service)
Briefly: HSP90 inhibition assay, FITC-geldanamycin competition fluorescence polarization, HSP90α. It counts as binding. Conditions: FITC-GM competition. A general note: Polarisation of emitted light reports the rotation of a fluorescent probe.

Series [3] concerns acetylation of α-tubulin and histone H3. Briefly: Western blot of α-tubulin and histone H3 acetylation in HCT116. The class given is cell-based, human. Conditions: HCT116, 0.25-1 μM, 6 hours. The protocol: (§1) The ability of α-tubulin and histone H3 acetylation was measured.
(§2) The effects of the HSP90/HDAC6 dual inhibitors as described in Synthesis Examples (such as Compounds 63, 64, and 66 to 76) on several factors were evaluated. Cells were lysed in RIPA buffer (Thermo Fisher Scientific, Wal-tham, MA, USA) and protease inhibitor (Roche, Basel, CH). Sample were further separated in 8% or 15% SDS-PAGE and transferred to nitrocellulose membrane and blocked with 5% skim milk (w/v in PBS). Nitrocellulose membranes were then incubated with primary antibodies against the following antigens: HSP90, Src, AKT, Rb, phosphorylated Rb (p-Rb), FAK, HSP70, α-tubulin acetylation, acetyl histone H3, phosphorylated STAT1 (p-STAT1), STAT1 (Cell signaling, Danvers, MA, USA), α-tubulin, Histone H3 (Genetex, Irvine, USA), IDO (Santa Cruz Biotechnology Dallas, TX, USA) and PD-L1 (Novus, Littleton, CO, USA) at 4° C. for overnight. The target proteins were visualized by using HRP-conjugated secondary antibodies (Jackson ImmunoResearch Laboratories, West Grove, PA, USA) and enhanced chemiluminescence kit (Thermo Fisher Scientific, Waltham, MA, U.S.A.).
(§3) The ability of Compound 75 on the acetylation of α-tubulin and histone H3 was evaluated. HCT116 cells were administered with Compound 75 for 6 hours and analyzed by western blot. […] Next, whether Compound 75 inhibited HSP90 was evaluated. […]
(In general: Immunoblotting shows a protein as a band on a membrane.)

The subject of series [4] is colorectal cancer tumors (CT26). The series is described as follows: CT26 tumor model, Compound 75 and Anti-PD1 alone and combined. It counts as in vivo.
In series [5] the test system is HSP90 client proteins (HSP70, Src, AKT, Rb, FAK). The series is described as follows: Western blot of HSP70 and HSP90 client proteins in HCT116. It counts as cell-based, human. As to conditions: HCT116, 0.25-1 μM, 48 hours. The protocol: as §1, §2, §3
Series [6] concerns the target T2, HSP90β (Homo sapiens, UniProt P08238).
T2 construct: Reaction Biology Corporation (ran the assay as a service)
The series is described as follows: HSP90 inhibition assay, FITC-geldanamycin competition fluorescence polarization, HSP90β. It counts as binding. As to conditions: FITC-GM competition.

Series [7] concerns PD-L1 expression in HCT116, LS174T, Mia paca-2, BXPC3, A549 and CT26 cells. The series is described as follows: IFN-γ-induced cell membrane PD-L1 in different cancer cell lines by flow cytometry. The class given is cell-based, human; mouse. As to conditions: Mia paca-2, BXPC3, A549, CT26, co-treated 48 hours. The protocol: The cells were tested in 6-well plates with 32×10^4 cells/well and co-treated with Compound 75 for 48 hours and analyzed by flow cytometry. Bar, SD. […] The effects of the HSP90/HDAC6 dual inhibitors as described in Synthesis Examples (such as Compounds 63, 64, and 66 to 76) on PD-L1 expression were evaluated. Cells were seeded in 6-well plates (3.2×10^5 cells/well) and treated on the next day with […] and compounds or DMSO (vehicle) at indicated concentrations for 48 h. The treated cells were suspended (3×10^5 cells/tube) and stained with PD-L1 antibody (Invitrogen, Waltham, USA) and FITC-conjugated secondary antibodies on ice for 1 h. The fluorescence signal of the cells was analyzed by FASCalibur flow cytometer and CellQuest software (BD Biosciences, San Jose, CA, USA). Using flow cytometry, whether Compound 75 could downregulate […]-induced PD-L1 performance in different cancer cell lines was evaluated, namely human colorectal cancer cell lines (HCT116 and LS174T), human pancreatic cancer cell lines (Mia paca-2 and BXPC3), human lung cancer cell line (A549) and mouse colorectal cancer cell line (CT26).
For orientation: In flow cytometry, cells or beads pass a laser one at a time.

The mark [8] stands for this setting: Anti-PD1 combination study, Compound 75 50 mg/kg/2 days.

T2 sequence (P08238 whole entry): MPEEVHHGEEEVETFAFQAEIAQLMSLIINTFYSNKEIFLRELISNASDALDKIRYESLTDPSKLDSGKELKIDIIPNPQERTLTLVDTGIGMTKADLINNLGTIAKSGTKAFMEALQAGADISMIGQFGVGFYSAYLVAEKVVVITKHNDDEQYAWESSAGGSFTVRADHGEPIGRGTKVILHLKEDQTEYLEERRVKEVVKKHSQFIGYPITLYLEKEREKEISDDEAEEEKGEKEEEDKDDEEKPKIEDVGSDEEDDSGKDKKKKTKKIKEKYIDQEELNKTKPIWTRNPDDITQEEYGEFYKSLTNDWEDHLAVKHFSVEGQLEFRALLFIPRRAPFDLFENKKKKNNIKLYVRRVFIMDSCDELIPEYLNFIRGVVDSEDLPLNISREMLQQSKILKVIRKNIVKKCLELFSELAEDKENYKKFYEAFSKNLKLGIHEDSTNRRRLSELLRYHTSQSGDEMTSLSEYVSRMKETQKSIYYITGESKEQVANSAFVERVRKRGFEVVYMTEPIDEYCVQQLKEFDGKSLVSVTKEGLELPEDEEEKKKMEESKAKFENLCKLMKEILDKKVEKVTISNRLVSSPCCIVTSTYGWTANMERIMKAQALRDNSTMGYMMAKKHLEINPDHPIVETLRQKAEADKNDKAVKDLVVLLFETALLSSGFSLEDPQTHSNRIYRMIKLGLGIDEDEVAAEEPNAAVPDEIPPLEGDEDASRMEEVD

Take `COc1ccc(N(Cc2ccc(C(=O)NO)cc2)C(=O)c2cc(C(C)C)c(O)cc2O)cc1` [Compound 75, 2,4-Dihydroxy-N-(4-hydroxycarbamoyl-benzyl)-5-isopropyl-N-(4-methoxy-phenyl)-benzamide]: in series [1], the “CD8 immune cell infiltration in the mouse tumor area” value is reported as “significantly increased” and the “granzyme B secretion” value was “concentration-dependent increase”. The IC50 in series [2] came to 52 nM. The “acetylation of α-tubulin and histone H3” value in series [3] is “enhances the acetylation of α-tubulin and histone H3”. In series [4] (setting [8]), the body weight entry is reported as “no significant change in body weight” and the toxicity to mice entry is “not significantly toxic”. Further, in series [4] (Compound 75 50 mg/kg/2 days or Anti-PD1 200 μg alone), the “treatment effect on CT26 tumor, agent alone” value is listed as “limited”. For the same compound, the “tumor growth, combined treatment with Anti-PD1” value in series [4] (Compound 75 50 mg/kg/2 days plus Anti-PD1 200 μg) is “significantly inhibited tumor growth”. Further, in series [5], the HSP70 expression result was “an increase in HSP70 expression”; the “protein levels of client proteins (Src, AKT, Rb and FAK)” value is given as “a downregulation of the protein levels of client proteins”. The compound further registered a half-inhibitory concentration (IC50) in series [6] of 66.9 nM. Also, the “IFN-γ-induced cell membrane protein PD-L1 expression” value in series [7] is listed as “inhibits all IFN-7-induced cell membrane protein PD-L1 expression”.

By IC50 is commonly meant the midpoint of a concentration-inhibition curve. A low value points to greater potency.
